Data taken from patent US20240199605A1, “SMALL MOLECULAR INHIBITORS OF NF-kB INDUCING KINASE” (Janssen Pharmaceutica NV, priority 2019, published 2024).

Tests used:
[1] = molecular target: recombinant human NF-kappaB-inducing kinase (NIK/MAP3K14) (Homo sapiens (Human), UniProt Q99558); assay: Inhibition of auto-phosphorylation of recombinant human NIK/MAP3K14 (AlphaScreen); type: biochemical; conditions: NIK auto-phosphorylation, 5 μM ATP, 1 nM NIK, 2 h at 25° C.; average of values
Summary of the method: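 AlphaScreen read-out (anti-phospho-IKK Ser176/180 antibody, Protein A acceptor and glutathione donor beads) of NIK auto-phosphorylation. Reaction: 1 nM enzyme, 5 μM ATP, Tris pH 7.5 buffer with Mg2+ and vanadate, 2 h at 25° C., final DMSO 0.7%. IC50 came from a sigmoidal curve fit.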

[2] = tested on: p-IKKα levels in L363 (NIK translocated multiple myeloma) cells; assay: Effect of compounds on p-IKKα levels in L363 cells (AlphaLISA SureFire Ultra); type: cell-based, human; conditions: Homo sapiens, L-363, 6 h, BAFF stimulated, MG132, 6 h, average of values, read-out: Assay 2 IC50
Summary of the method: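 Inhibition of p-IKKα (Ser176/180) read by AlphaLISA after 6 h, 37 °C compound exposure (11-point 1:3 series, 0.3% DMSO) of L363 cells pre-incubated overnight ± 250 ng/ml BAFF and plated ± BAFF ± 10 μM MG132. Normalised to BAFF/MG132/DMSO and unstimulated controls; IC50 by sigmoidal fitting, duplicates.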

Sequence of recombinant human NF-kappaB-inducing kinase (NIK/MAP3K14) (Q99558 whole entry): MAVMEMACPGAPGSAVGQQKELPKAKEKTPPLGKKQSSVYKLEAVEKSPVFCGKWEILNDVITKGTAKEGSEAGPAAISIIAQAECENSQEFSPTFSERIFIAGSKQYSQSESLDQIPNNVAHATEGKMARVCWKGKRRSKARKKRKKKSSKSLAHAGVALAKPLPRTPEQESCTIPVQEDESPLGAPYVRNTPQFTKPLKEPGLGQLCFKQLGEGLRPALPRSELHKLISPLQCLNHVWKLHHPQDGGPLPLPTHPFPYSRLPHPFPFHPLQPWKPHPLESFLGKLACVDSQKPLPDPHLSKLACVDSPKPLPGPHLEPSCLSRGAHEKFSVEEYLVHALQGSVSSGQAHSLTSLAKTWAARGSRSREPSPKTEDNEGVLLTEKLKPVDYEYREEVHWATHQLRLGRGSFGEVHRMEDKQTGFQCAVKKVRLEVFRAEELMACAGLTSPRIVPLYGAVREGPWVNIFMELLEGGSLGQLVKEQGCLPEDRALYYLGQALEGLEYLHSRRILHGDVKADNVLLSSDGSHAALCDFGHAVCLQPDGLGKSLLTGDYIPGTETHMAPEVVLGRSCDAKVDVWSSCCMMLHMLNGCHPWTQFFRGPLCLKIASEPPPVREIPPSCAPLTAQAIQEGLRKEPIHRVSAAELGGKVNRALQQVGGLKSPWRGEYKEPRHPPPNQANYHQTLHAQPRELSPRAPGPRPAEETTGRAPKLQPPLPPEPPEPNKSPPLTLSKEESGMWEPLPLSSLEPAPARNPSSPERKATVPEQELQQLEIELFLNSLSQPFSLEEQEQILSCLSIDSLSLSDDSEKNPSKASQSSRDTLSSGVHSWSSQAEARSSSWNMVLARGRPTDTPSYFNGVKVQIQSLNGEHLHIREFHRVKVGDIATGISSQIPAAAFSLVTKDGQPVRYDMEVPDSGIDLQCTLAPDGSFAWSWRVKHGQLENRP

Row | SMILES | IC50 [1] | IC50 [2]
1 | Cc1nc(N)c2nc(-c3cccc(C#C[C@]4(O)CCN(C)C4=O)c3)c(C)cc2n1 [Example 178, (R)-3-((3-(4-Amino-2,7-dimethylpyrido[3,2-d]pyrimidin-6-yl)phenyl)ethynyl)-3-hydroxy-1-methylpyrrolidin-2-one] | 18 nM | 820 nM
2 | CN1CC[C@@](O)(C#Cc2cccc(-c3ncc4c(C#N)cnc(N)c4n3)c2)C1=O [Example 100, (R)-8-Amino-2-(3-((3-hydroxy-1-methyl-2-oxopyrrolidin-3-yl)ethynyl)phenyl)pyrido[3,4-d]pyrimidine-5-carbonitrile] | ≤ 0.5 nM | 6.1 nM
3 | CN1CC[C@@](O)(C#Cc2cccc(-c3ccc4ncnc(N5CC(Cl)C5)c4n3)c2)C1=O [Example 244, (R)-3-((3-(4-(3-Chloroazetidin-1-yl)pyrido[3,2-d]pyrimidin-6-yl)phenyl)ethynyl)-3-hydroxy-1-methylpyrrolidin-2-one] | 4.9 nM | 240 nM
4 | CN1CC[C@@](O)(C#Cc2cccc(-c3nc(C(F)(F)F)c4ccnc(N)c4n3)c2)C1=O [Example 38, (R)-3-((3-(8-Amino-4-(trifluoromethyl)pyrido[3,4-d]pyrimidin-2-yl)phenyl)ethynyl)-3-hydroxy-1-methylpyrrolidin-2-one] | 0.7 nM | 40 nM
5 | CN1CC[C@@](O)(C#Cc2cccc(-c3ccc4c(c3)c(N)nn4C(=O)OC(C)(C)C)c2)C1=O [Example 169, (R)-tert-Butyl 3-amino-5-[3-[2-(3-hydroxy-1-methyl-2-oxo-pyrrolidin-3-yl)ethynyl]phenyl]indazole-1-carboxylate] | 1210 nM | > 5000 nM
6 | CN1CC[C@@](O)(C#Cc2cccc(-c3ccc4ccnc(N5CCC5)c4c3)c2)C1=O [Example 234, (R)-3-((3-(1-(Azetidin-1-yl)isoquinolin-7-yl)phenyl)ethynyl)-3-hydroxy-1-methylpyrrolidin-2-one] | 1800 nM | > 5000 nM
7 | CN1CC[C@@](O)(C#Cc2cccc(-c3ncc4c(C(F)(F)F)cnc(N)c4n3)c2)C1=O [Example 99, (R)-3-[2-[3-[8-Amino-5-(trifluoromethyl)pyrido[3,4-d]pyrimidin-2-yl]phenyl]ethynyl]-3-hydroxy-1-methyl-pyrrolidin-2-one] | ≤ 0.5 nM | 12 nM
8 | Cc1ccc(C#C[C@]2(O)CCc3cccnc32)cc1-c1nc2c(N)ncnc2s1 [Example 184, (R)-7-[2-[3-(7-Aminothiazolo[5,4-d]pyrimidin-2-yl)-4-methyl-phenyl]ethynyl]-5,6-dihydrocyclopenta[b]pyridin-7-ol] | ≤ 0.5 nM | 9.9 nM
9 | Cc1nc(N)c2nc(-c3cccc(C#C[C@]4(O)CCN(C)C4=O)c3)nc(C)c2n1 [Example 156, (R)-3-((3-(8-Amino-4,6-dimethylpyrimido[5,4-d]pyrimidin-2-yl)phenyl)ethynyl)-3-hydroxy-1-methylpyrrolidin-2-one] | 1.1 nM | 16 nM
10 | CN1CC[C@@](O)(C#Cc2cccc(-c3cc(Oc4cnn(C(F)F)c4)c4ncnc(N)c4n3)c2)C1=O [Example 305, (R)-3-[2-[3-[4-Amino-8-[1-(difluoromethyl)pyrazol-4-yl]oxy-pyrido[3,2-d]pyrimidin-6-yl]phenyl]ethynyl]-3-hydroxy-1-methyl-pyrrolidin-2-one] | 2.2 nM | 64 nM
11 | CN1CC[C@@](O)(C#Cc2cccc(-c3cc(NC4CC4)c4ncnc(N)c4n3)c2)C1=O [Example 298, (R)-3-[2-[3-[4-Amino-8-(cyclopropylamino)pyrido[3,2-d]pyrimidin-6-yl]phenyl]ethynyl]-3-hydroxy-1-methyl-pyrrolidin-2-one] | 0.8 nM | 24 nM
12 | CN1CC[C@@](O)(C#Cc2ccc(OC(F)(F)F)c(-c3ccc4ncnc(N)c4n3)c2)C1=O [Example 271, (R)-3-((3-(4-Aminopyrido[3,2-d]pyrimidin-6-yl)-4-(trifluoromethoxy)phenyl)ethynyl)-3-hydroxy-1-methylpyrrolidin-2-one] | 4.2 nM | 44 nM
13 | Cc1cc([C@](C)(O)C#Cc2ccc(C)c(-c3nc4c(N)ncnc4s3)c2)no1 [Example 217, (R)-4-[3-(7-Aminothiazolo[5,4-d]pyrimidin-2-yl)-4-methyl-phenyl]-2-(5-methylisoxazol-3-yl)but-3-yn-2-ol] | 0.9 nM | 77 nM
14 | CN1CC[C@@](O)(C#Cc2cccc(-c3cc4c(N)nccc4cn3)c2)C1=O [Example 119, (R)-3-[2-[3-(5-Amino-2,6-naphthyridin-3-yl)phenyl]ethynyl]-3-hydroxy-1-methyl-pyrrolidin-2-one] | 0.7 nM | 43 nM
15 | Cc1cnc(C)c2nc(-c3cccc(C#C[C@]4(O)CCN(C)C4=O)c3)ccc12 [Example 252, (R)-3-((3-(5,8-Dimethyl-1,7-naphthyridin-2-yl)phenyl)ethynyl)-3-hydroxy-1-methylpyrrolidin-2-one] | 31 nM | > 2000 nM
16 | [2H]C([2H])([2H])N1CC[C@@](O)(C#Cc2cccc(-c3nc(C)c4ccnc(N)c4n3)c2)C1=O [Example 83, (R)-3-((3-(8-Amino-4-methylpyrido[3,4-d]pyrimidin-2-yl)phenyl)ethynyl)-3-hydroxy-1-(methyl-da)pyrrolidin-2-one] | ≤ 0.5 nM | 3.2 nM
17 | Cc1csc([C@](C)(O)C#Cc2cccc(-c3ccc4nc(C)nc(N)c4n3)c2)n1 [Example 180, (R)-4-(3-(4-Amino-2-methylpyrido[3,2-d]pyrimidin-6-yl)phenyl)-2-(4-methylthiazol-2-yl)but-3-yn-2-ol] | 410 nM | > 5000 nM
18 | Cc1cc(-c2cccc(C#C[C@]3(O)CCN(C)C3=O)c2)nc2c(C)ncnc12 [Example 250, (R)-3-((3-(4,8-Dimethylpyrido[3,2-d]pyrimidin-6-yl)phenyl)ethynyl)-3-hydroxy-1-methylpyrrolidin-2-one] | 7.9 nM | 130 nM
19 | CN1CC[C@@](O)(C#Cc2cccc(-c3nc4c(N)nccc4s3)c2)C1=O [Example 116, (R)-3-((3-(4-Aminothiazolo[4,5-c]pyridin-2-yl)phenyl)ethynyl)-3-hydroxy-1-methylpyrrolidin-2-one] | 0.9 nM | 47 nM

The remaining lines, values ahead:

Row | IC50 [1] | IC50 [2] | SMILES
20 | 44 nM | 2460 nM | CN1CC[C@@](O)(C#Cc2cccc(-c3ccc4ncnc(-c5ccccc5)c4n3)c2)C1=O [Example 257, (R)-3-Hydroxy-1-methyl-3-((3-(4-phenylpyrido[3,2-d]pyrimidin-6-yl)phenyl)ethynyl)pyrrolidin-2-one]
21 | ≤ 0.5 nM | 47 nM | CC1(C)CC[C@@](O)(C#Cc2cccc(-c3ccc4ncnc(N)c4n3)c2)C1=O [Example 131, (R)-2-[2-[3-(4-Aminopyrido[3,2-d]pyrimidin-6-yl)phenyl]ethynyl]-2-hydroxy-5,5-dimethyl-cyclopentanone]
22 | 13 nM | > 5000 nM | CN1CC[C@@](O)(C#Cc2cccc(-c3cnc4ncnc(N)c4c3)c2)C1=O [Example 109, (R)-3-((3-(4-Aminopyrido[2,3-d]pyrimidin-6-yl)phenyl)ethynyl)-3-hydroxy-1-methylpyrrolidin-2-one]
23 | 0.7 nM | 57 nM | CN1CC[C@@](O)(C#Cc2cccc(-c3ccc4ncnc(N)c4c3)c2)C1=O [Example 16, (R)-3-[2-[3-(4-Aminoquinazolin-6-yl)phenyl]ethynyl]-3-hydroxy-1-methyl-pyrrolidin-2-one]
24 | 2.5 nM | 110 nM | Cc1cc(C#C[C@]2(O)CCc3cccnc32)cc(-c2ncc3ccnc(N)c3n2)c1 [Example 52, (R)-7-[2-[3-(8-Aminopyrido[3,4-d]pyrimidin-2-yl)-5-methyl-phenyl]ethynyl]-5,6-dihydrocyclopenta[b]pyridin-7-ol]
25 | 170 nM | 2300 nM | Cc1nc(N)c2nc(-c3cccc(C#C[C@@]4(O)CCN(C)C4=O)c3)ccc2n1 [Example 7, (S)-3-((3-(4-Amino-2-methylpyrido[3,2-d]pyrimidin-6-yl)phenyl)ethynyl)-3-hydroxy-1-methylpyrrolidin-2-one]
26 | 0.6 nM | 15 nM | CN1CC[C@@](O)(C#Cc2cccc(-c3cc(OC4CC4)c4ncnc(N)c4n3)c2)C1=O [Example 304, (R)-3-[2-[3-[4-Amino-8-(cyclopropoxy)pyrido[3,2-d]pyrimidin-6-yl]phenyl]ethynyl]-3-hydroxy-1-methyl-pyrrolidin-2-one]
27 | ≤ 0.5 nM | 18 nM | Cc1n[nH]c(C)c1-c1cnc(N)c2nc(-c3cccc(C#C[C@]4(O)CCN(C)C4=O)c3)ncc12 [Example 125, (R)-3-[2-[3-[8-Amino-5-(3,5-dimethyl-1H-pyrazol-4-yl)pyrido[3,4-d]pyrimidin-2-yl]phenyl]ethynyl]-3-hydroxy-1-methyl-pyrrolidin-2-one]
28 | 68 nM | > 5000 nM | Cc1c(C#C[C@]2(O)CCN(C)C2=O)cccc1-c1ncc2ccnc(N)c2n1 [Example 41, (R)-3-((3-(8-Aminopyrido[3,4-d]pyrimidin-2-yl)-2-methylphenyl)ethynyl)-3-hydroxy-1-methylpyrrolidin-2-one]
29 | 0.7 nM | 58 nM | CC(C)Cc1cnc(N)c2nc(-c3cccc(C#C[C@]4(O)CCN(C)C4=O)c3)ncc12 [Example 130, (R)-3-((3-(8-Amino-5-isobutylpyrido[3,4-d]pyrimidin-2-yl)phenyl)ethynyl)-3-hydroxy-1-methylpyrrolidin-2-one]
